Assay results as given in patent US4032659A (priority 1975, dated 1977).
Where two headings read alike, the source gives them in different places.

What was measured:
Assay type in all cases: in vivo, mouse
Conditions in all cases: oral
[1] = tested on: Influenza B Massachusetts virus; assay: Chemoprophylaxis of Influenza B Massachusetts virus infection in mice
Procedure: The activity of four compounds on Influenza B Mass. was tested in mice.
A portion of a commercially available sample of amantadine was recrystallized from isopropanol. The activity of the material against Influenza B Mass. was tested for the sample as obtained, the recrystallized portion, and the mother liquor obtained from recrystallizing the portion.

Herpes virus = tested on: Herpes virus
[2] = tested on: Influenza Ann Arbor virus; assay: Chemoprophylaxis of Influenza Ann Arbor (A1) virus infection in mice

## NC(=S)NN=C1CCCCC1 [Cyclohexanone, thiosemicarbazone]
[1]; total dose 5pg
  No. animals surviving after 11 days: 7
  No. animals surviving when 16/20 of controls are dead: 5
  Survivors: 5
[1]; total dose 50pg
  No. animals surviving after 11 days: 4
  No. animals surviving when 16/20 of controls are dead: 3
  Survivors: 2
[1]; total dose 500pg
  No. animals surviving after 11 days: 2
  No. animals surviving when 16/20 of controls are dead: 2
  Survivors: 2
[1]; total dose 5ng
  No. animals surviving after 11 days: 3
  No. animals surviving when 16/20 of controls are dead: 2
  Survivors: 2
[1]; total dose 50ng
  No. animals surviving after 11 days: 7
  No. animals surviving when 16/20 of controls are dead: 7
  Survivors: 5
[1]; total dose 500ng
  No. animals surviving after 11 days: 2
  No. animals surviving when 16/20 of controls are dead: 1
  Survivors: 1

## NN.O=S(=O)(O)O [Hydrazine Sulfate, hydrazine sulfate]
Herpes virus; total dose 5 μg
  Survivors: 2
Herpes virus; total dose .0005 μg
  Survivors: 3
Herpes virus; total dose .005 μg
  Survivors: 4
Herpes virus; total dose .05 μg
  Survivors: 0
Herpes virus; total dose .5 μg
  Survivors: 1

## N=C(N)NN [aminoguanidine, bicarbonate]
[1]; total dose 40pg
  Survivors: 0
[1]; total dose 4ng
  Survivors: 0
[1]; total dose 40ng
  Survivors: 1
[1]; total dose 400ng
  Survivors: 1
[1]; total dose 4μg
  Survivors: 1

## NC12CC3CC(CC(C3)C1)C2 [Commercial amantadine, amantadine, reference compound]
[1]; total dose 60 ng
  No. animals surviving after 11 days: 3
  Survivors: 0
[1]; total dose 600 ng
  No. animals surviving after 11 days: 3
  Survivors: 3
[1]; total dose 6 μg
  No. animals surviving after 11 days: 7
  Survivors: 5
[1]; total dose 60 μg
  No. animals surviving after 11 days: 3
  Survivors: 2
[1]; total dose 600 μg
  No. animals surviving after 11 days: 5
  Survivors: 5
[1]; total dose 6 mg
  No. animals surviving after 11 days: 4
  Survivors: 2

## NNC(=S)NC12CC3CC(CC(C3)C1)C2
Herpes virus; total dose 4pg
  No. animals surviving when 18/20 of controls are dead: 1
  Survivors: 1
Herpes virus; total dose 40pg
  No. animals surviving when 18/20 of controls are dead: 1
  Survivors: 1
Herpes virus; total dose 400pg
  No. animals surviving when 18/20 of controls are dead: 3
  Survivors: 3
Herpes virus; total dose 4ng
  No. animals surviving when 18/20 of controls are dead: 2
  Survivors: 2
Herpes virus; total dose 40ng
  No. animals surviving when 18/20 of controls are dead: 2
  Survivors: 2
Herpes virus; total dose 400ng
  No. animals surviving when 18/20 of controls are dead: 3
  Survivors: 3

## NC12CC3CC(CC(C3)C1)C2 [Recrystallized amantadine, amantadine, reference compound]
[1]; total dose 60 ng
  No. animals surviving after 11 days: 4
  Survivors: 2
[1]; total dose 600 ng
  No. animals surviving after 11 days: 3
  Survivors: 3
[1]; total dose 6 μg
  No. animals surviving after 11 days: 5
  Survivors: 5
[1]; total dose 60 μg
  No. animals surviving after 11 days: 5
  Survivors: 2
[1]; total dose 600 μg
  No. animals surviving after 11 days: 3
  Survivors: 2
[1]; total dose 6 mg
  No. animals surviving after 11 days: 6
  Survivors: 4

## CCCC(C)=NNC(N)=S [2-pentanone, thiosemicarbazone]
[2]; total dose 30 pg
  No. animals surviving after 6 days: 2
  Survivors: 0
[2]; total dose 300 pg
  No. animals surviving after 6 days: 2
  Survivors: 0
[2]; total dose 3 ng
  No. animals surviving after 6 days: 2
  Survivors: 0
[2]; total dose 15 ng
  No. animals surviving after 7 days: 3
  Survivors: 0
[2]; total dose 22.5 ng
  No. animals surviving after 7 days: 0
  Survivors: 0
[2]; total dose 30 ng
  No. animals surviving after 6 days: 2
  Survivors: 0
[2]; total dose 75 ng
  No. animals surviving after 7 days: 1
  Survivors: 0
[2]; total dose 150 ng
  No. animals surviving after 7 days: 0
  Survivors: 0
[2]; total dose 225 ng
  No. animals surviving after 7 days: 3
  Survivors: 0
[2]; total dose 300 ng
  No. animals surviving after 6 days: 1
  Survivors: 0
[2]; total dose 750 ng
  No. animals surviving after 7 days: 2
  Survivors: 0
[2]; total dose 1.5 μg
  No. animals surviving after 7 days: 2
  Survivors: 0
[2]; total dose 2.25 μg
  No. animals surviving after 7 days: 1
  Survivors: 1
[2]; total dose 3 μg
  No. animals surviving after 6 days: 1
  Survivors: 0
[2]; total dose 30 μg
  No. animals surviving after 6 days: 1
  Survivors: 1
[2]; total dose 300 μg
  No. animals surviving after 6 days: 0
  Survivors: 0
